This is an account of results in PubChem BioAssay (NCI).

Some test systems named below: SR leukemia; 786-0 renal; OVCAR-4 ovarian; SK-MEL-2 melanoma; T-47D breast; OVCAR-8 ovarian; UACC-62 melanoma; HOP-62 NSCLC; MCF7 breast; CAKI-1 renal; UACC-257 melanoma; RXF 393 renal; HS 578T breast; IGROV1 ovarian; A498 renal; RPMI-8226 leukemia; MALME-3M melanoma; MDA-N.
What all share (experiment): inhibition of tumour cell growth, NCI panel, 48 h

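Compound exposure: 48 hours, 5 concentrations, 96-well plates. GI50 = concentration required for 50% inhibition of growth. At the TGI there is no net growth.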

In the case of `CC1=NN(c2nc(N)nc(COc3ccc(N)cc3)n2)C(C)(C)C1`, the TGI in the experiment with SR leukemia, in the experiment on 786-0 renal, with OVCAR-4 ovarian, with SK-MEL-2 melanoma, with T-47D breast and in the experiment with OVCAR-8 ovarian was above 100 µM each time. The TGI with UACC-62 melanoma, with HOP-62 NSCLC, with MCF7 breast, in the experiment on CAKI-1 renal, in the experiment with UACC-257 melanoma and in the experiment on RXF 393 renal was above 100 µM throughout. The TGI in the experiment on HS 578T breast, with IGROV1 ovarian, in the experiment with A498 renal and with RPMI-8226 leukemia was above 100 µM in each case.
On to `CNC(=O)NCCCC(NC(C)=O)C(=O)NCc1ccccc1` (stereo not given), for which the TGI with 786-0 renal, with OVCAR-4 ovarian, in the experiment on SK-MEL-2 melanoma, in the experiment on MALME-3M melanoma, with OVCAR-8 ovarian and in the experiment with UACC-62 melanoma was above 100 µM each time. Besides, the TGI in the experiment on HOP-62 NSCLC, with CAKI-1 renal, with UACC-257 melanoma, with RXF 393 renal, with IGROV1 ovarian and in the experiment on A498 renal was above 100 µM in each case. Further, the TGI in the experiment with RPMI-8226 leukemia was above 100 µM.
In the case of `COc1cc(C2C(Cl)C(=O)N2n2cnc3ccccc3c2=O)ccc1O` (stereo not given), the TGI with SR leukemia, in the experiment on 786-0 renal, in the experiment with OVCAR-4 ovarian, in the experiment on SK-MEL-2 melanoma, in the experiment on MALME-3M melanoma and with OVCAR-8 ovarian was above 100 µM in each case. Moreover, the TGI is above 100 µM in the experiment on UACC-62 melanoma; above 100 µM in the experiment with HOP-62 NSCLC; above 100 µM in the experiment on CAKI-1 renal; 99.6 µM in the experiment with UACC-257 melanoma; above 100 µM in the experiment on RXF 393 renal; above 100 µM in the experiment on IGROV1 ovarian. The molecule further displayed a TGI in the experiment on RPMI-8226 leukemia above 100 µM.
On to `N#Cc1cccc(-n2[nH]c(=O)ccc2=O)c1`, for which the TGI with SR leukemia, in the experiment with 786-0 renal, in the experiment on OVCAR-4 ovarian, in the experiment with SK-MEL-2 melanoma, in the experiment with MALME-3M melanoma and in the experiment with OVCAR-8 ovarian was above 100 µM throughout. Also, the TGI in the experiment on UACC-62 melanoma, with HOP-62 NSCLC, in the experiment on CAKI-1 renal, in the experiment with UACC-257 melanoma, in the experiment with IGROV1 ovarian and in the experiment with RPMI-8226 leukemia was above 100 µM throughout.
In the case of `COc1cc(OCCN(C)C)c2[nH]c(C(=O)N3CC(CCl)c4ccc(N)cc43)cc2c1` (stereo not given), the TGI in the experiment on SR leukemia was above 100 µM; in the experiment with 786-0 renal, 1.47 µM; in the experiment with OVCAR-4 ovarian it was 1.32 µM; in the experiment on SK-MEL-2 melanoma, 0.0933 µM; in the experiment with UACC-62 melanoma, 0.567 µM; in the experiment on HOP-62 NSCLC it was 0.0507 µM. For the same molecule, the TGI in the experiment with MCF7 breast stood at 0.133 µM; in the experiment on UACC-257 melanoma it was 0.329 µM; in the experiment with RXF 393 renal, 0.033 µM; in the experiment on A498 renal it was 0.508 µM; in the experiment with RPMI-8226 leukemia, 0.271 µM.
`COc1cccc(-c2cc(=O)c3cc(N4CCCCC4)ccc3[nH]2)c1`: the TGI with 786-0 renal is above 48 µM; in the experiment with OVCAR-4 ovarian, above 57.9 µM; in the experiment with SK-MEL-2 melanoma, above 100 µM; in the experiment with T-47D breast, above 100 µM; in the experiment with MALME-3M melanoma, above 100 µM; with OVCAR-8 ovarian, above 100 µM. In addition, the TGI in the experiment with UACC-62 melanoma was above 100 µM; in the experiment with HOP-62 NSCLC it was above 43.9 µM; with MCF7 breast it was above 100 µM; in the experiment with CAKI-1 renal, above 100 µM; with UACC-257 melanoma it was above 100 µM; with RXF 393 renal it was 1.62 µM. Further, the TGI in the experiment with HS 578T breast is above 86.1 µM; in the experiment on IGROV1 ovarian it was above 100 µM; in the experiment with A498 renal, above 100 µM; in the experiment on RPMI-8226 leukemia it was above 100 µM.
On to `COc1ccc(C2Oc3cc(OC)c(OC)cc3C2CCl)cc1OC` (stereo not given), for which the TGI in the experiment on SR leukemia, with 786-0 renal, with OVCAR-4 ovarian, with SK-MEL-2 melanoma, in the experiment with MALME-3M melanoma and with OVCAR-8 ovarian was above 100 µM in each case. In addition, the TGI was 79.5 µM in the experiment on UACC-62 melanoma; above 100 µM in the experiment with HOP-62 NSCLC; above 100 µM in the experiment on CAKI-1 renal; above 100 µM with UACC-257 melanoma; above 100 µM with A498 renal; above 100 µM in the experiment on RPMI-8226 leukemia.
In the case of `C=C1c2nc3ccccc3n2C=C(c2ccc(OC)cc2)N1c1ccc(OC)cc1`, the TGI was above 100 µM in the experiment with SR leukemia; above 100 µM in the experiment with 786-0 renal; above 100 µM in the experiment on OVCAR-4 ovarian; above 100 µM in the experiment with SK-MEL-2 melanoma; 48.4 µM in the experiment with MALME-3M melanoma; 24.4 µM in the experiment on OVCAR-8 ovarian. For the same molecule, the TGI in the experiment with UACC-62 melanoma was 51.8 µM; in the experiment on MCF7 breast, above 100 µM; with CAKI-1 renal it was 19.3 µM; in the experiment on UACC-257 melanoma it was above 100 µM; in the experiment with RXF 393 renal, 29.8 µM; with MDA-N, above 100 µM. Besides, the TGI with IGROV1 ovarian is 94.3 µM; in the experiment with A498 renal, 64.9 µM; with RPMI-8226 leukemia, above 100 µM.
For `CCNC(=O)c1ccc(C)c(N=NN(C)C)c1`, the TGI in the experiment on 786-0 renal, with OVCAR-4 ovarian, with SK-MEL-2 melanoma, in the experiment with OVCAR-8 ovarian, in the experiment with UACC-62 melanoma and in the experiment with HOP-62 NSCLC was above 100 µM in each case. The TGI in the experiment on CAKI-1 renal, in the experiment with UACC-257 melanoma and in the experiment with IGROV1 ovarian was above 100 µM throughout.
Turning to `O=c1cc(-c2ccc3c(c2)OCO3)[nH]c2cc3c(cc12)OCO3`, the TGI in the experiment on SR leukemia was 52.1 µM; with 786-0 renal it was above 100 µM; with OVCAR-4 ovarian, above 100 µM; in the experiment on SK-MEL-2 melanoma, above 100 µM; in the experiment with MALME-3M melanoma, 97.8 µM; with OVCAR-8 ovarian it was 78.1 µM. Moreover, the TGI in the experiment with UACC-62 melanoma is above 100 µM; with HOP-62 NSCLC it was 63 µM; in the experiment on CAKI-1 renal it was above 100 µM; in the experiment with RXF 393 renal, 66.5 µM; in the experiment with IGROV1 ovarian, above 100 µM; with RPMI-8226 leukemia, above 100 µM. Moreover, the GI50 in the experiment with RXF 393 renal was 20.8 µM.
